# Measurements from PubChem BioAssay (NCI).
#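 At the GI50, growth is halved. TGI denotes the concentration required for complete inhibition of growth.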
# How the values were obtained:
# Experiment in all cases: NCI-60 cell line screen, 384-well format
# SK-MEL-28 melanoma = tested on: SK-MEL-28 melanoma
# PC-3 prostate = tested on: PC-3 prostate
# NCI-H23 lung = tested on: NCI-H23 lung
# SK-MEL-5 melanoma = tested on: SK-MEL-5 melanoma
# SNB-19 CNS = tested on: SNB-19 CNS
# HT29 colon = tested on: HT29 colon
# OVCAR-3 ovarian = tested on: OVCAR-3 ovarian
# IGROV1 ovarian = tested on: IGROV1 ovarian
# UACC-257 melanoma = tested on: UACC-257 melanoma
# MDA-MB-468 breast = tested on: MDA-MB-468 breast
# HOP-62 NSCLC = tested on: HOP-62 NSCLC
# RXF 393 renal = tested on: RXF 393 renal
# MDA-MB-435 melanoma = tested on: MDA-MB-435 melanoma
# HOP-92 NSCLC = tested on: HOP-92 NSCLC
# COLO 205 colon = tested on: COLO 205 colon
# OVCAR-8 ovarian = tested on: OVCAR-8 ovarian
# CCRF-CEM leukemia = tested on: CCRF-CEM leukemia
# SR leukemia = tested on: SR leukemia
# TK-10 renal = tested on: TK-10 renal
# HCC-2998 colon = tested on: HCC-2998 colon
# KM12 colon = tested on: KM12 colon
# SK-OV-3 ovarian = tested on: SK-OV-3 ovarian
# MCF7 breast = tested on: MCF7 breast
# UACC-62 melanoma = tested on: UACC-62 melanoma
# LOX IMVI melanoma = tested on: LOX IMVI melanoma
# EKVX NSCLC = tested on: EKVX NSCLC
# RPMI-8226 leukemia = tested on: RPMI-8226 leukemia
# NCI-H226 lung = tested on: NCI-H226 lung
# NCI-H322M lung = tested on: NCI-H322M lung
# SF-539 CNS = tested on: SF-539 CNS
# SNB-75 CNS = tested on: SNB-75 CNS
# HCT-116 colon = tested on: HCT-116 colon
# HL-60(TB) leukemia = tested on: HL-60(TB) leukemia
# A549 NSCLC = tested on: A549 NSCLC
# DU-145 prostate = tested on: DU-145 prostate
# BT-549 breast = tested on: BT-549 breast
# SW-620 colon = tested on: SW-620 colon
# SN12C renal = tested on: SN12C renal
# OVCAR-4 ovarian = tested on: OVCAR-4 ovarian
# CAKI-1 renal = tested on: CAKI-1 renal
# ACHN renal = tested on: ACHN renal
# SF-295 CNS = tested on: SF-295 CNS
# SF-268 CNS = tested on: SF-268 CNS
# HS 578T breast = tested on: HS 578T breast
# 786-0 renal = tested on: 786-0 renal
# NCI/ADR-RES ovarian = tested on: NCI/ADR-RES ovarian
# HCT-15 colon = tested on: HCT-15 colon
smiles,measurement,setting,value
CNCc1ccc(C)c(NC(=O)c2ccc(Nc3nc(-c4ccccc4)c4ccccc4n3)cc2)c1,GI50,SK-MEL-28 melanoma,1.69 µM
same,TGI,SK-MEL-28 melanoma,3.06 µM
same,GI50,PC-3 prostate,1.69 µM
same,TGI,PC-3 prostate,3.16 µM
same,GI50,NCI-H23 lung,1.83 µM
same,TGI,NCI-H23 lung,3.27 µM
same,GI50,SK-MEL-5 melanoma,1.39 µM
same,TGI,SK-MEL-5 melanoma,2.69 µM
same,GI50,SNB-19 CNS,1.86 µM
same,TGI,SNB-19 CNS,3.31 µM
same,GI50,HT29 colon,1.41 µM
same,TGI,HT29 colon,2.74 µM
same,GI50,OVCAR-3 ovarian,1.78 µM
same,TGI,OVCAR-3 ovarian,3.2 µM
same,GI50,IGROV1 ovarian,1.81 µM
same,TGI,IGROV1 ovarian,3.6 µM
same,GI50,UACC-257 melanoma,0.654 µM
same,TGI,UACC-257 melanoma,1.6 µM
same,GI50,MDA-MB-468 breast,1.71 µM
same,TGI,MDA-MB-468 breast,3.09 µM
same,GI50,HOP-62 NSCLC,1.91 µM
same,TGI,HOP-62 NSCLC,3.33 µM
same,GI50,RXF 393 renal,1.46 µM
same,TGI,RXF 393 renal,2.79 µM
same,GI50,MDA-MB-435 melanoma,1.91 µM
same,TGI,MDA-MB-435 melanoma,3.34 µM
same,GI50,HOP-92 NSCLC,1.79 µM
same,TGI,HOP-92 NSCLC,3.18 µM
same,GI50,COLO 205 colon,1.6 µM
same,TGI,COLO 205 colon,2.96 µM
same,GI50,OVCAR-8 ovarian,1.64 µM
same,TGI,OVCAR-8 ovarian,3.02 µM
same,GI50,CCRF-CEM leukemia,1.58 µM
same,TGI,CCRF-CEM leukemia,2.94 µM
same,GI50,SR leukemia,0.342 µM
same,TGI,SR leukemia,0.799 µM
same,GI50,TK-10 renal,1.81 µM
same,TGI,TK-10 renal,3.29 µM
same,GI50,HCC-2998 colon,1.28 µM
same,TGI,HCC-2998 colon,2.55 µM
same,GI50,KM12 colon,1.42 µM
same,TGI,KM12 colon,2.75 µM
same,GI50,SK-OV-3 ovarian,1.78 µM
same,TGI,SK-OV-3 ovarian,3.18 µM
same,GI50,MCF7 breast,1.48 µM
same,TGI,MCF7 breast,2.85 µM
same,GI50,UACC-62 melanoma,1.61 µM
same,TGI,UACC-62 melanoma,2.97 µM
same,GI50,LOX IMVI melanoma,1.55 µM
same,TGI,LOX IMVI melanoma,2.91 µM
same,GI50,EKVX NSCLC,1.57 µM
same,TGI,EKVX NSCLC,2.95 µM
same,GI50,RPMI-8226 leukemia,1.72 µM
same,TGI,RPMI-8226 leukemia,3.1 µM
same,GI50,NCI-H226 lung,1.88 µM
same,TGI,NCI-H226 lung,3.36 µM
same,GI50,NCI-H322M lung,1.74 µM
same,TGI,NCI-H322M lung,3.14 µM
same,GI50,SF-539 CNS,1.71 µM
same,TGI,SF-539 CNS,3.1 µM
same,GI50,SNB-75 CNS,1.85 µM
same,TGI,SNB-75 CNS,3.3 µM
same,GI50,HCT-116 colon,1.73 µM
same,TGI,HCT-116 colon,3.16 µM
same,GI50,HL-60(TB) leukemia,1.04 µM
same,TGI,HL-60(TB) leukemia,2.4 µM
same,GI50,A549 NSCLC,1.8 µM
same,TGI,A549 NSCLC,3.24 µM
same,GI50,DU-145 prostate,1.93 µM
same,TGI,DU-145 prostate,3.48 µM
same,GI50,BT-549 breast,1.7 µM
same,TGI,BT-549 breast,3.09 µM
same,GI50,SW-620 colon,1.85 µM
same,TGI,SW-620 colon,3.28 µM
same,GI50,SN12C renal,1.59 µM
same,TGI,SN12C renal,2.96 µM
same,GI50,OVCAR-4 ovarian,1.86 µM
same,TGI,OVCAR-4 ovarian,3.4 µM
same,GI50,CAKI-1 renal,0.42 µM
same,TGI,CAKI-1 renal,1.36 µM
same,GI50,ACHN renal,1.84 µM
same,TGI,ACHN renal,3.26 µM
same,GI50,SF-295 CNS,1.85 µM
same,TGI,SF-295 CNS,3.26 µM
same,GI50,SF-268 CNS,1.77 µM
same,TGI,SF-268 CNS,3.17 µM
same,GI50,HS 578T breast,1.93 µM
same,TGI,HS 578T breast,3.34 µM
same,GI50,786-0 renal,1.5 µM
same,TGI,786-0 renal,2.84 µM
same,GI50,NCI/ADR-RES ovarian,1.86 µM
same,TGI,NCI/ADR-RES ovarian,3.33 µM
same,GI50,HCT-15 colon,1.05 µM
same,TGI,HCT-15 colon,2.39 µM
